What was measured:
[1] = biological target: T1, NEK6 (Homo sapiens, UniProt Q9HC98); assay: Protein kinase panel selectivity screen, NEK6; type: biochemical; details: 1 μM compound; [ATP] 50 μM
T1 construct: Dundee University (screening panel)
Experimental: (§1) The names of the 29 kinases comprising the selectivity screen, as well as the ATP concentrations used in each kinase case, are given in Table 5. The kinase assays were carried out as described previously.
(§2) Compound XIV at a concentration of 1 μM was screened in the 29-kinase panel (Dundee University) and the results are shown bellow in Table 6.

[2] = biological target: T2, PDK1 (Homo sapiens, UniProt O15530); assay: Protein kinase panel selectivity screen, PDK1; type: biochemical; details: 1 μM compound; [ATP] 20 μM
T2 construct: Dundee University (panel)
Experimental: as §1, §2

[3] = biological target: T3, SGK (Homo sapiens, UniProt O00141); assay: Protein kinase panel selectivity screen, SGK; type: biochemical; details: 1 μM compound; [ATP] 20 μM
T3 construct: Dundee University (panel)
Experimental: as §1, §2

[4] = biological target: T4, PHK (Oryctolagus cuniculus, UniProt P00518); assay: Protein kinase panel selectivity screen, PHK; type: biochemical; details: 1 μM compound; [ATP] 20 μM
T4 construct: Dundee University (screening panel)
Experimental: as §1, §2

[5] = tested on: p70S6K; assay: Protein kinase panel selectivity screen, p70S6K; type: biochemical; details: 1 μM compound; [ATP] 20 μM
Experimental: as §1, §2

[6] = tested on: glycogen synthase activity in L6 rat myocytes; assay: Glycogen synthase (GS) assay in L6 rat myocytes; type: cell-based
Experimental: Rat skeletal muscle myoblasts L6/G8.C5 were seeded at 2.4×10^5 cells per 10 cm dish in DMEM 10% foetal calf serum (FCS), containing penicillin/streptomycin. When 90% confluence was reached the medium was exchanged with α MEM, supplemented with 2%
FCS and penicillin/streptomycin. Medium was refreshed every 48 hours and 4-7 days later the myocytes were formed.
Cells on 10 cm dishes (Human Embryonic Kidney (HEK) 293 cells, L6 rat myocytes, or 3T3 mouse adipocytes) were treated with different concentrations of GSK3-inhibitors or DMSO vehicle for 90 min. […] Lysates were assayed for glycogen synthase activity in buffer (50 mM Tris-HCl, pH 7.8, 20 mM EDTA, 25 mM NaF, 5 mM DTT, 1% glycogen, 0.3 mM UDP-glucose and 0.06 μCi of [^14C]-UDP-glucose in the presence of 0.1 or 10 mM glucose-6-phosphate. The reaction was carried out for 30 min at 30° C. 70 μL of the reaction mixture (total volume 90 μL) were transferred to a GFC 96-well filter plate (bottom sealed with foil), containing 140 μL 96% ethanol. The GFC plate was incubated for 1 h on ice and than washed with 66% ethanol. To each well 100 μL scintillant liquid was added and the radioactivity of the samples was measured using a scintillation counter (Topcount, HP). Data are expressed as -fold increase in glycogen synthase activity ratios over those of control samples.

[7] = tested on: PKA; assay: Protein kinase panel selectivity screen, PKA; type: biochemical; details: 1 μM compound; [ATP] 5 μM
Experimental: as §1, §2

[8] = biological target: T5, CDK4/cyclin D1 (Homo sapiens, UniProt P11802); assay: CDK/cyclin kinase assay, CDK4/cyclin D1; type: biochemical
T5 construct: His6 (N); made in house; host or cells: CDK4: Sf9 insect cells (baculovirus); Cyclin D1: E. coli, Sf9
Experimental: CDK4/cyclin D1, CDK1/cyclin B, CDK2/cyclin E, CDK2/cyclin A, CDK9/cyclin T1 and CDK7/cyclin H, all with a His6 tag on the N-terminus, were expressed in Sf9 insect cells using an appropriate baculovirus construct. Sf9 culture (1.6×10^6 cells/mL) was infected (MOI of 3) for two days. The cells were harvested by low speed centrifugation and the protein was purified from the insect cell pellet by metal affinity chromatography. In short: the insect cell pellet was lysed in Buffer A (10 mM Tris-HCl pH 8.0, 150 mM NaCl, 0.02% NP-40, 5 mM β-mercaptoethanol, 20 mM NaF, 1 mM Na3VO4, and Sigma Protease Inhibitor Cocktail) by sonication. The soluble fraction was cleared by centrifugation and loaded onto Ni-NTA-Agarose (Qiagen). Non-bound protein was washed off with 300 mM NaCl, 5-15 mM imidazole in buffer A and the bound protein was eluted with buffer A supplemented with 250 mM imidazole. The purified proteins were extensively dialyzed against storage buffer (20 mM HEPES pH 7.4, 50 mM NaCl, 2 mM DTT, 1 mM EDTA, 1 mM EGTA, 0.02% NP-40, 10% v/v glycerol) and stored at −70° C.
Compounds were investigated for their CDK2/cyclin E, CDK2/cyclin A, CDK1/cyclin B, and CDK4/cyclin D1 inhibitory activity. His6-tagged recombinant human cyclin-dependent kinases CDK1/cyclin B1, CDK2/cyclin E, CDK2/cyclin A, and CDK4 were expressed in sf9 insect cells using a baculovirus expression system. Recombinant cyclin D1 was expressed in E. coli. Proteins were purified by metal chelate affinity chromatography to greater than 90% homogeneity. Kinase assays were performed in 96-well plates using recombinant CDK/cyclins. Assays were performed in assay buffer (25 mM β-glycerophosphate, 20 mM MOPS, 5 mM EGTA, 1 mM DTT, 1 mM […], pH 7.4), into which were added 2-4 μg of active enzyme with appropriate substrates (purified histone H1 for CDK1 and CDK2, recombinant GST-retinoblastoma protein (residues 773-928) for CDK4). The reaction was initiated by addition of Mg/ATP mix (15 mM MgCl2+100 μM ATP with 30-50 kBq per well of [γ-^32P]-ATP) and mixtures incubated for 10-45 min, as required, at 30° C. Reactions were stopped on ice, followed by filtration through p81 or GF/C filterplates (for CDK4) (Whatman Polyfiltronics, Kent, UK). After washing 3 times with 75 mM aq orthophosphoric acid, plates were dried, scintillant added and incorporated radioactivity measured in a scintillation counter (TopCount, Packard Instruments, Pangbourne, Berks, UK). Compounds for kinase assays were made up as 10 mM stocks in DMSO and diluted into 10% DMSO in assay buffer. Data was analysed using curve-fitting software (GraphPad Prism version 3.00 for Windows, GraphPad Software, San Diego Calif. USA) to determine IC50 values (concentration of test compound which inhibits kinase activity by 50%).

T5 sequence (P11802 whole entry): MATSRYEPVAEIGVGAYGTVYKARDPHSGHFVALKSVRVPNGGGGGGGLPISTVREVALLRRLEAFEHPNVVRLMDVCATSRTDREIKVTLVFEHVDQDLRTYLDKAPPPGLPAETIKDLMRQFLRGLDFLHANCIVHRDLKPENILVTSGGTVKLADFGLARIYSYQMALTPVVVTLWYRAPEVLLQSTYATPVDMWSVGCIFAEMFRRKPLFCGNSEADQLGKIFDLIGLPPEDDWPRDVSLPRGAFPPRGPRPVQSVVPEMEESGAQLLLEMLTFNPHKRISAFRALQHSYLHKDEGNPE
T5 sequence (P24385 whole entry partner): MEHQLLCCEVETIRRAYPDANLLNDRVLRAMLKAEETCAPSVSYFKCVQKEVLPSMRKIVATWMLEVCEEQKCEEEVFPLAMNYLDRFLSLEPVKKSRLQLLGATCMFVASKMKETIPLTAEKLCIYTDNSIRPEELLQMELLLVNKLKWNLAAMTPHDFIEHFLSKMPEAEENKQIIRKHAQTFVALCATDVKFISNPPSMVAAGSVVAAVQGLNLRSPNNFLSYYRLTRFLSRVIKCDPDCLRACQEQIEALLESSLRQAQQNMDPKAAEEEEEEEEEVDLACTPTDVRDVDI
T1 sequence (Q9HC98 whole entry, species assumed): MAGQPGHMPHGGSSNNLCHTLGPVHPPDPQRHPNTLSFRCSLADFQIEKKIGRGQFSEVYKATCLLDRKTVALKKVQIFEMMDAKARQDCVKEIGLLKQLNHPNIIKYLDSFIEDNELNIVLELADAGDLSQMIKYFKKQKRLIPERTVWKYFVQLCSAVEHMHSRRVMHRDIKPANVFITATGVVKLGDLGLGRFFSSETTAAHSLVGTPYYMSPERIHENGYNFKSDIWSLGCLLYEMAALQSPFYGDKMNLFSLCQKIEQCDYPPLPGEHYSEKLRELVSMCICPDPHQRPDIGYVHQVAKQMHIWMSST
T3 sequence (O00141 whole entry, species assumed): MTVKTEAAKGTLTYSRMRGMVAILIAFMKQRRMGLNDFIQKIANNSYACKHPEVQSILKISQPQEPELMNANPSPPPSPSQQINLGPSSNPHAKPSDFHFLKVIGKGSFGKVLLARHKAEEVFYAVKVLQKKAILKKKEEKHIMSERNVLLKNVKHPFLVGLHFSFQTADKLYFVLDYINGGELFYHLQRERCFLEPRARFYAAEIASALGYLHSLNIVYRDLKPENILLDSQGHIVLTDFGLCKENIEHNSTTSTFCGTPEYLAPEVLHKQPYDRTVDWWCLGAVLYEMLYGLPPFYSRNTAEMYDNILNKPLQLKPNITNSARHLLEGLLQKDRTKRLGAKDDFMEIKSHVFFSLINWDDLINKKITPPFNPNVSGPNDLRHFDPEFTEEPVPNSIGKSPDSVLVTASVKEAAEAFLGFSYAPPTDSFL
T2 sequence (O15530 whole entry): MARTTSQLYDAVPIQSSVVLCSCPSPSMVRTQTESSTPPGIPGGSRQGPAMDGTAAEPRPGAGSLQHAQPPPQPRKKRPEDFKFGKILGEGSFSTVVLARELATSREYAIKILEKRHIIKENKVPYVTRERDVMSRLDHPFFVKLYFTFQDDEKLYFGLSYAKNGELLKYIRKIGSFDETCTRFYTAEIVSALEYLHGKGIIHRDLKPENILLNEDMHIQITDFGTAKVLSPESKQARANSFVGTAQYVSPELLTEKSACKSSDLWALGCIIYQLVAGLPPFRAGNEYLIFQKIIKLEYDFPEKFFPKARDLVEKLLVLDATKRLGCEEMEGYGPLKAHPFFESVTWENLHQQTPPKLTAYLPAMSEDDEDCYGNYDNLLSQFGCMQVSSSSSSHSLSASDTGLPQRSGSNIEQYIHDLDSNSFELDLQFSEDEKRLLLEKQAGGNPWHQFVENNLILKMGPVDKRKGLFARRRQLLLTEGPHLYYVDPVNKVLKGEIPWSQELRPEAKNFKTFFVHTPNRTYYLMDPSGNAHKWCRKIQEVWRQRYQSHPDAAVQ

## Clc1ccc(Nc2nccc(-c3nccs3)n2)cn1 [Compound XIV, (6-Chloro-pyridin-3-yl)-(4-thiazol-2-yl-pyrimidin-2-yl)-amine]
[1]
  activity at 1 µM: 87 ± 6%
[2]
  activity at 1 µM: 85 ± 5%
[3]
  activity at 1 µM: 79 ± 4%
[4]
  activity at 1 µM: 120 ± 7%
[5]
  % Activity p70S6K: 91 ± 2%
[6]; Rattus norvegicus, L6 myocytes, from dose-response curves, read-out: EC50 activation of glycogen synthase
  EC50: 4 ± 1.5 µM
[6]; rat myocyte cells, ratio of activity at 0.1 and 10 mM glucose-6-phosphate
  Activity of glycogen synthase (fractional velocity): increased the activity of glycogen synthase
[7]
  % Activity PKA: 76 ± 3%
[8]
  Ki: > 100 µM
[8]; from Ki
  Fold selectivity for GSK3 over CDK4/cyclin D1: >6,250 fold
[8]; read-out: Kinase inhibition IC50 CDK4/D1
  IC50: > 100 µM
